In patent publication US11180490B2, “Cyclopropyl urea formyl peptide 2 receptor and formyl peptide 1 receptor agonists” (BRISTOL-MYERS SQUIBB COMPANY, priority 2017, dated 2021):

Tests used:
human FPR1 = target: T1, human FPR1 (Homo sapiens, UniProt P21462); test: FPR1 cyclic adenosine monophosphate (cAMP) assay; assay type: cell-based; details: CHO cells overexpressing human FPR1; inhibition of forskolin-stimulated cAMP production; read-out: hFPR1 cAMP EC50
T1 sequence (P21462 1-350): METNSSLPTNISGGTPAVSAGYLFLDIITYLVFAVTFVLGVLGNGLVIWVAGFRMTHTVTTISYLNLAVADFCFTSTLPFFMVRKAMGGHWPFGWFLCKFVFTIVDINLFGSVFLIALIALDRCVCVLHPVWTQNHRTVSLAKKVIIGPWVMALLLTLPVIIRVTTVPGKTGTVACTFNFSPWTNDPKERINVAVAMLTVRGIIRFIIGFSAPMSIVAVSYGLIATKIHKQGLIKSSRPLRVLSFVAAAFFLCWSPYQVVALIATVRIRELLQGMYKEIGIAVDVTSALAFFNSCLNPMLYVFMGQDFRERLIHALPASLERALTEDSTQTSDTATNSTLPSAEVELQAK
Protocol: (§1) FPR2 and FPR1 Cyclic Adenosine Monophosphate (cAMP) Assays. A mixture of forskolin (5 μM final for FPR2 or 10 μM final for FPR1) and IBMX (200 μM final) were added to 384-well Proxiplates (Perkin-Elmer) pre-dotted with test compounds in DMSO (1% final) at final concentrations in the range of 1.7 nM to 100 μM. Chinese Hamster Ovary cells (CHO) overexpressing human FPR1 or human FPR2 receptors were cultured in F-12 (Ham's) medium supplemented with 10% qualified FBS, 250 μg/ml zeocin and 300 μg/ml hygromycin (Life Technologies). Reactions were initiated by adding 2,000 human FPR2 cells per well or 4,000 human FPR1 cells per well in Dulbecco's PBS (with calcium and magnesium) (Life Technologies) supplemented with 0.1% BSA (Perkin-Elmer). The reaction mixtures were incubated for 30 min at room temperature. The level of intracellular cAMP was determined using the HTRF HiRange cAMP assay reagent kit (Cisbio) according to manufacturer's instruction. Solutions of cryptate conjugated anti-cAMP and d2 flurorophore-labelled cAMP were made in a supplied lysis buffer separately. Upon completion of the reaction, the cells were lysed with equal volume of the d2-cAMP solution and anti-cAMP solution. After a 1-h room temperature incubation, time-resolved fluorescence intensity was measured using the Envision (Perkin-Elmer) at 400 nm excitation and dual emission at 590 nm and 665 nm. A calibration curve was constructed with an external cAMP standard at concentrations ranging from 1 μM to 0.1 pM by plotting the fluorescent intensity ratio from 665 nm emission to the intensity from the 590 nm emission against cAMP concentrations. The potency and activity of a compound to inhibit cAMP production was then determined by fitting to a 4-parametric logistic equation from a plot of cAMP level versus compound concentrations.

human FPR2 = target: T2, human FPR2 (Homo sapiens, UniProt P25090); test: FPR2 cyclic adenosine monophosphate (cAMP) assay; assay type: cell-based; details: CHO cells overexpressing human FPR2; inhibition of forskolin-stimulated cAMP production; read-out: hFPR2 cAMP2 EC50
T2 sequence (P25090 1-351): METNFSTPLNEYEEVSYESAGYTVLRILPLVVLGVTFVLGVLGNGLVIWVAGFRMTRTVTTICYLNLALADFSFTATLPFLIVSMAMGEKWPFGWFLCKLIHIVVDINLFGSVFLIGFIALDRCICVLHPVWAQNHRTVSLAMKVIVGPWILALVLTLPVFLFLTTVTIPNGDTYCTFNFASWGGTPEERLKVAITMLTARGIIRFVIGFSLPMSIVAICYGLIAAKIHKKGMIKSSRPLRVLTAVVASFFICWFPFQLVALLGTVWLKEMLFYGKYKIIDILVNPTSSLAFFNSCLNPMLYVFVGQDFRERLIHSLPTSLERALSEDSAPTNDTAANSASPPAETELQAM
Protocol: as §1

Row | SMILES | EC50 (human FPR1) [nM] | EC50 (human FPR2) [nM]
1 | COc1cc(F)c([C@@H]2CNC(=O)[C@H]2NC(=O)NC2(c3cccc(Cl)n3)CC2)c(F)c1 [Example 1, 3-[1-(6-chloropyridin-2-yl)cyclopropyl]-1-[(3S,4R)-4-(2,6-difluoro-4-methoxyphenyl)-2-oxopyrrolidin-3-yl]urea] | 820 | 8.3
2 | COc1cc(F)c([C@@H]2CNC(=O)[C@H]2NC(=O)NC2(c3ccc(C)cc3)CC2)c(F)c1 [Example 2, 1-[(3S,4R)-4-(2,6-difluoro-4-methoxyphenyl)-2-oxopyrrolidin-3-yl]-3-[1-(4-methylphenyl)cyclopropyl]urea] | 660 | 33
3 | COc1cc(F)c([C@@H]2CNC(=O)[C@H]2NC(=O)NC2(c3ccc4ncccc4n3)CC2)c(F)c1 [Example 4, 1-[(3S,4R)-4-(2,6-difluoro-4-methoxyphenyl)-2-oxopyrrolidin-3-yl]-3-[1-(1,5-naphthyridin-2-yl)cyclopropyl]urea] | 1000 | 110
4 | COc1cc(F)c([C@@H]2CN(C)C(=O)[C@H]2NC(=O)NC2(c3ccc4ccccc4n3)CC2)c(F)c1 [Example 8, 1-[(3S,4R)-4-(2,6-difluoro-4-methoxyphenyl)-1-methyl-2-oxopyrrolidin-3-yl]-3-[1-(quinolin-2-yl)cyclopropyl]urea] | 66 | 5.7
5 | COc1cc(F)c([C@@H]2CNC(=O)[C@H]2NC(=O)NC2(c3cccc(C(F)(F)F)c3)CC2)c(F)c1 [Example 19, 1-[(3S,4R)-4-(2,6-difluoro-4-methoxyphenyl)-2-oxopyrrolidin-3-yl]-3-{1-[3-(trifluoro-methyl)phenyl]cyclo-propyl}urea] | 2300 | 49
6 | COc1cc(F)c([C@@H]2CNC(=O)[C@H]2NC(=O)NC2(c3ccc4ccccc4n3)CC2)c(F)c1 [Example 26, 1-[(3S,4R)-4-(2,6-difluoro-4-methoxyphenyl)-2-oxopyrrolidin-3-yl]-3-[1-(quinolin-2-yl)cyclopropyl]urea] | 320 | 6.4
7 | COc1cc(F)c([C@@H]2CNC(=O)[C@H]2NC(=O)NC2(c3ccc(Cl)c(C)n3)CC2)c(F)c1 [Example 47, 3-[1-(5-chloro-6-methylpyridin-2-yl)cyclopropyl]-1-[(3S,4R)-4-(2.6-difluoro-4-methoxyphenyl)-2-oxopyrrolidin-3-yl]urea] | 270 | 2.3
8 | COc1ccc([C@@H]2CNC(=O)[C@H]2NC(=O)NC2(c3cccc(Cl)n3)CC2)c(F)c1 [Example 48, 3-[1-(6-chloropyridin-2-yl)cyclopropyl]-1-[(3S,4R)-4-(2-fluoro-4-methoxyphenyl)-2-oxopyrrolidin-3-yl]urea] | 140 | 9.7
9 | COc1cc(F)c([C@@H]2CNC(=O)[C@H]2NC(=O)NC2(c3ccc(C)c(Cl)c3)CC2)c(F)c1 [Example 50, 3-[1-(3-chloro-4-methylphenyl)cyclopropyl]-1-[(3S,4R)-4-(2,6-difluoro-4-methoxyphenyl)-2-oxopyrrolidin-3-yl]urea] | 200 | 1.7
10 | COc1cc(F)c([C@@H]2CNC(=O)[C@H]2NC(=O)NC2(c3ccc4cc(Cl)ccc4n3)CC2)c(F)c1 [Example 53, 3-[1-(6-chloroquinolin-2-yl)cyclopropyl]-1-[(3S,4R)-4-(2,6-difluoro-4-methoxyphenyl)-2-oxopyrrolidin-3-yl]urea] | 430 | 12
11 | COc1cc(F)c([C@@H]2CNC(=O)[C@H]2NC(=O)NC2(c3ccc4cc(OC)ccc4c3)CC2)c(F)c1 [Example 63, 1-[(3S,4R)-4-(2,6-difluoro-4-methoxyphenyl)-2-oxopyrrolidin-3-yl]-3-[1-(6-methoxynaphthalen-2-yl)cyclopropyl]urea] | 1500 | 34
12 | COc1cc(F)c([C@@H]2CN(CCO)C(=O)[C@H]2NC(=O)NC2(c3ccc4ccccc4n3)CC2)c(F)c1 [Example 67, 1-[(3S,4R)-4-(2,6-difluoro-4-methoxyphenyl)-1-(2-hydroxyethyl)-2-oxopyrrolidin-3-yl]-3-[1-(quinolin-2-yl)cyclopropyl]urea] | 700 | 63
13 | COc1cc(F)c([C@@H]2CNC(=O)[C@H]2NC(=O)NC2(c3nc4ccc(C)cc4s3)CC2)c(F)c1 [Example 85, 1-[(3S,4R)-4-(2,6-difluoro-4-methoxyphenyl)-2-oxopyrrolidin-3-yl]-3-[1-(6-methyl-1,3-benzothiazol-2-yl)cyclopropyl]urea] | 1600 | 12
14 | COc1cc(F)c([C@@H]2CN(CC3CC3)C(=O)[C@H]2NC(=O)NC2(c3cccc(C)n3)CC2)c(F)c1 [Example 94, 1-((3S,4R)-1-(cyclopropylmethyl)-4-(2,6-difluoro-4-methoxyphenyl)-2-oxopyrrolidin-3-yl)-3-(1-(6-methylpyridin-2-yl)cyclopropyl)urea] | 26 | 1.5
15 | CCCN1C[C@@H](c2c(F)cc(OC)cc2F)[C@H](NC(=O)NC2(c3ccc4ccccc4n3)CC2)C1=O [Example 95, 1-[(3S,4R)-4-(2,6-difluoro-4-methoxyphenyl)-2-oxo-1-propylpyrrolidin-3-yl]-3-[1-(quinolin-2-yl)cyclopropyl]urea] | 19 | 1.7
16 | COc1cc(F)c([C@@H]2CNC(=O)[C@H]2NC(=O)NC2(c3nc4c(C(F)(F)F)cccc4s3)CC2)c(F)c1 [Example 96, 1-[(3S,4R)-4-(2,6-difluoro-4-methoxyphenyl)-2-oxopyrrolidin-3-yl]-3-{1-[4-(trifluoromethyl)-1,3-benzothiazol-2-yl]cyclopropyl}urea] | 120 | 2
17 | COc1cc(F)c([C@@H]2CN(CC(F)(F)F)C(=O)[C@H]2NC(=O)NC2(c3cccc(C)n3)CC2)c(F)c1 [Example 110, 1-[(3S,4R)-4-(2,6-difluoro-4-methoxyphenyl)-2-oxo-1-(2,2,2-trifluoroethyl)pyrrolidin-3-yl]-3-[1-(6-methylpyridin-2-yl)cyclopropyl]urea] | 150 | 14
18 | COc1cc(F)c([C@@H]2CN(Cc3nnc(C)o3)C(=O)[C@H]2NC(=O)NC2(c3cccc(C)n3)CC2)c(F)c1 [Example 115] | 280 | 25
19 | COc1cc(F)c([C@@H]2CNC(=O)[C@H]2NC(=O)NC2(c3cccc(OCc4ccc5ccccc5c4)c3)CC2)c(F)c1 [Example 131, 1-[(3S,4R)-4-(2,6-difluoro-4-methoxyphenyl)-2-oxopyrrolidin-3-yl]-3-(l-{3-[(naphthalen-2-yl)methoxy]phenyl}cyclo-propyl)urea] | 1000 | 4
